In series [1] the test system is human primary hepatocytes. The series can be described thus: High-throughput liver platform, primary screening: hepatocyte proliferation by automated high-content imaging (hepatocyte nuclei numbers). In kind it is cell-based. To be noted: primary screening. As for the experimental part:
In order to avoid species-specific differences and cell line mutations, the screen was conducted with human primary hepatocytes. Traditionally, chemical screening on such cells has been hindered by their availability in large quantities as well as their rapid loss of viability and phenotype in vitro. Recent advances in cryopreservation technologies allowed enough primary human cells to be stored for screening; these cells are maintained through co-cultivation with non-parenchymal cells. Co-cultures of primary human hepatocytes with murine embryonic J2-3T3 fibroblasts were recently shown to maintain normal hepatocyte phenotype for weeks. These in vitro platforms consisted of hepatocytes surrounded by a co-planar population of fibroblasts. While sufficient for stabilizing hepatocyte functions in vitro, such platforms may limit normal hepatocyte expansion due to contact inhibition. Thus, for this screen, a sparse population of hepatocytes was co-cultivated on top of a confluent feeder layer of J2-3T3 fibroblasts within 384-well plates (FIG. 1A top). This screening platform stabilized hepatocyte phenotypic functions in vitro (FIG. 1A bottom) and was compatible with two separate high-throughput readouts developed for this screen.
The primary readout detected hepatocyte proliferation via automated high-content imaging. This assay quantified hepatocyte nuclei numbers, using nuclear morphologies to separate the hepatocyte and fibroblast subpopulations that co-exist within the screening platform. When visualized with Hoechst stain, hepatocyte nuclei were smaller and more uniform in texture while fibroblast nuclei were larger and punctated (FIG. 1A bottom). Leveraging this distinction, automated image analyses was developed that utilized machine learning algorithms to classify nuclei types and tabulate hepatocyte nuclei numbers. […] Besides quantifying hepatocyte nuclei that have completed mitosis, the number of nuclei in the process of mitosis were also quantified. Two additional analysis pipelines were built to detect nuclear morphologies consistent with cells undergoing metaphase and anaphase.
(§1) FIG. 1B top summarizes the workflow of the screen. Primary screening was done on human primary hepatocytes, preconditioned for seven days by non-parenchymal cells in the screening platform. Upon stabilization in vitro, cultures were treated with the chemical library for 48 hours. All compounds were tested in duplicates, at a single concentration of 15 μM. This single concentration was selected via a pilot screen of ˜2,000 small molecules. All 12,480 small molecules were initially tested on a single donor of cryopreserved hepatocytes (donor a) in order to eliminate noise from donor-to-donor variability. Following compound treatment, media supernatants were collected for functional analyses via ELISA and cultures were fixed in 4% paraformaldehyde for proliferation analyses via imaging.
To identify proliferation hits, three image-based readouts—one each to quantify the number of (1) hepatocyte nuclei in interphase, (2) nuclei in metaphase and (3) nuclei in anaphase—were integrated. z Scores were converted into p values, which were then used to generate ranked lists of compounds based on the efficacy and consistency of effects across the different proliferation readouts. Efficacy was assessed by the product of p values (pprod=pinter×pmeta×pana); consistency was evaluated by the maximum of p values (pmax=max(pinter, pmeta, pana). Compounds were considered proliferation hits if pprod<1×10^−6 and pmax<0.25. Functional hits were selected by an ELISA […]. Compounds with ELISA z>3.0 were eliminated as toxic. 93 compounds met all hit selection criteria, qualifying as Functional Proliferation Hits (FPH); FIG. 1B bottom illustrates the types of compounds that constituted this set of hits.

For series [2], the system named is human primary hepatocytes. The series can be described thus: High-throughput liver platform, primary screening: secreted albumin by competitive ELISA. The series is classed as cell-based.
Excerpt: In order to evaluate the phenotype of treated cells, a secondary readout was included to quantify hepatocyte functions via competitive ELISA. This biochemical assay measured the level of secreted albumin as a marker for protein synthesis functions of the cultured hepatocytes (FIG. 1A bottom).
as §1
A general note: ELISA stands for enzyme-linked immunosorbent assay.

For the next series, the system named is iHeps. As to the kind of experiment: CYP450 activities of treated iHeps through isoenzyme-specific probes. In kind it is cell-based, human. As for the experimental part: Culture media were collected and frozen at −20° C. until analysis. Albumin content was measured through sandwich ELISA assays (MP Biomedicals, Fitzgerald, Bethyl Laboratories) using horseradish peroxidase detection and 3,3′,5,5′-tetramethylbenzidine (TMB, Fitzgerald Industries) as a substrate. Urea concentration was determined colorimetrically using diacetylmonoxime with acid and heat (Stanbio Labs). To quantify CYP450 activity, at 48 hours after small molecule exposure, cultures were incubated with substrates (coumarin from Sigma for CYP2A6, luciferin-IPA from Promega for CYP3A4) for 4 hours at 37° C. Incubation medium was collected and metabolite concentration quantified via luminescence, or fluorescence after hydrolization of potential metabolite conjugates by β-glucuronidase/arylsulfatase (Roche, Ind.).
The ability of compounds of the invention to affect the differentiation and maturation of iHeps was tested. Undifferentiated iPS cells were cultured on Matrigel, supported by primary mouse embryonic fibroblasts. […]
To confirm the staining results, secreted levels of albumin and AFP via ELISA, and CYP450 activities through isoenzyme-specific probes that are either fluorescent or luminescent were measured. […]

The record followed here is patent US10081609B2, “Compounds for inducing proliferation and differentiation of cells, and methods of use thereof” (The Broad Institute, Inc., priority 2013, dated 2018).

As for `Cc1ccc(Cl)cc1N(CC(=O)Nc1c(F)cccc1F)S(C)(=O)=O` [FPH2, 2-(N-(5-chloro-2-methylphenyl)methylsulfonamido)-N-(2,6-difluorophenyl)acetamide], the “number of nuclei undergoing mitosis” value in series [1] is “elevated”. For the same compound, the “increase in hepatocyte nuclei numbers during primary screening” value in series [1] (15 μM, 48 hours) turned out to be 1.5 ×. Besides, in series [2], the “albumin secretion during primary screening” value is recorded as “similar, but weaker effects”. Also, in the series on iHeps, the CYP3A4 activity increase came to 45 times.
